Structures can show the parent of a compound that is named as a salt. Where two headings read alike, the source gives them in different places.

In one assay the target is T1, h-5-HT6 receptor (Homo sapiens, UniProt P50406).
T1 construct: expressed in transfected cells
The assay can be described thus: 5-HT6 receptor binding assay (displacement of [3H]-LSD). The method, then:
Displacement of radioligands binding to the following cloned human receptors
(§1) 1. Preparation of Membranes by Ultrasonic Treatment and Differential Centrifugation
Cells from stable clonal cell lines expressing the corresponding receptor (5-HT6, α1-adrenergic, dopamine D2 or histamine H1 receptors) were washed with PBS (w/o Ca^++, Mg^++) and harvested in PBS with 0.02% EDTA. The cells were collected by centrifugation at 500 g for 10 min. at 4° C., washed with PBS and centrifuged (500 g, 10 min. 4° C.). The pellets were stored at −80° C. until use. F or membrane preparation, the thawed cell pellet was resuspended in ice-cold sucrose buffer (0.25 M sucrose, 10 mM Hepes (pH 7.4), 1 mM Phenylmethylsulfonyl fluoride (PMSF) in DMSO, 5 μg/ml Pepstatin-A, 3 mM EDTA, 0.025% Bacitracin) and homogenized with a Branson Sonifier W-250 (Settings: Timer 4; Output Control 3; Duty Cycle constant; 2 to 3 cycles). Cell disruption was checked with the aid of a microscope. Remaining unbroken cells were pelleted at 1.000 g for 10 min. at 4° C. The sucrose buffer supernatant was then centrifuged at 60.000 g for 1 h at 4° C. (Beckman Ultrazentrifuge XL 80). The pellet was resuspended in 30 ml ice-cold Tris buffer (20 mM TRIS (pH 7.4), 5 μg/ml Pepstatin A, 0.1 mM PMSF, 3 mM EDTA) by pipetting through a 10 ml serological pipet and centrifuged for 1 h at 4° C. at 60.000 g. A final resuspension was performed in a small volume of ice-cold Tris buffer (see above) by pressing through a serological pipet followed by ultrasonic treatment with a Branson Sonifier W-250 (Settings: Timer 1; Output Control 3; Duty Cycle constant; 1 cycle). Protein concentration was determined (BCA-Kit; Pierce) and aliquots stored at −80° C. or in liquid nitrogen for long-term storage.
(§2) 2. Receptor Binding Experiments
All receptor binding experiments were carried out in the corresponding assay buffer in a total volume of 200 μl in the presence of various concentrations of test compound (10^−5 M to 10^−9 M, tenfold serial dilution, duplicate determinations). The assays were terminated by filtration on polyethylenimine (PEI 0.1% or 0.3%) presoaked Packard Unifilter Plates (GF/C or GF/B) with a Tomtec Machill U 96 well-plate harvester. After the plates had been dried for 2 h at 55° C. in a drying chamber scin tillation cocktail (BetaPlate Scint; PerkinElmer) was added. Radioactivity was measured in a Microbeta Trilux two hours after the addition of the scintillation mixture. Data derived from liquid scintillation counting were analysed by iterative non-linear regression analysis with the use of the Statistical Analysis System (SAS): a program similar to “LIGAND” as described by Munson and Rodbard (Analytical Biochemistry 107, 220-239 (1980).
a) 5-HT6 Receptor Binding Assay
HEK293 cells stably expressing the h-5-HT6 receptor (NCBI Reference Sequence XM 001435) were cultured in RPMI1640 medium supplemented with 25 mM HEPES, 10% fetal calf serum and 1-2 mM glutamine. The membrane preparation was performed as described in section 1. […] Non-specific binding was defined with 1 μM methiothepin. The binding reaction was carried out for 3.5 h at room temperature. During the incubation, the plates were shaken on a plate shaker at 100 rpm and terminated by filtration on Packard Unifilter GF/C (0.1% PEI) plates, followed by 2 wash cycles with ice-cold 50 mM Tris-HCl, 5 mM CaCl2.
Data derived from liquid scintillation counting were analyzed by iterative non-linear regression analysis with the use of the Statistical Analysis System (SAS): a program similar to “LIGAND” as described by Munson and Rodbard (Anal. Biochem. 1980, 107, 220-239). Fitting was performed according to formulae described by Feldman (Anal. Biochem. 1972, 48, 317-338). IC50, nH and Ki values were expressed as geometrical mean.

The target of another assay is T2, dopamine D2 receptor (Homo sapiens, UniProt P14416).
T2 construct: expressed in transfected cells
The assay can be described thus: Dopamine D2 receptor binding assay (displacement of [125I]-iodospiperone). The note with it: dopamine D2 receptor membranes, HEK293; read-out: KD of radioligand (saturation binding experiments). The method, then:
as §1
The pellets were stored at −80° C. until use. […] (Beckman Ultrazentrifuge XL 80).
as §2
a) Dopamine D2 Receptor Binding Assay
Non-specific binding was defined with 1 μM haloperidol.
On the technique in general: In a radioligand displacement assay an active substance lowers the binding of a labelled ligand.

Where [1] appears, read: membranes of HEK293 cells expressing h-5-HT6 receptor, 1 nM [3H]-LSD, read-out: Ki(5HT6).

T1 sequence (P50406 whole entry): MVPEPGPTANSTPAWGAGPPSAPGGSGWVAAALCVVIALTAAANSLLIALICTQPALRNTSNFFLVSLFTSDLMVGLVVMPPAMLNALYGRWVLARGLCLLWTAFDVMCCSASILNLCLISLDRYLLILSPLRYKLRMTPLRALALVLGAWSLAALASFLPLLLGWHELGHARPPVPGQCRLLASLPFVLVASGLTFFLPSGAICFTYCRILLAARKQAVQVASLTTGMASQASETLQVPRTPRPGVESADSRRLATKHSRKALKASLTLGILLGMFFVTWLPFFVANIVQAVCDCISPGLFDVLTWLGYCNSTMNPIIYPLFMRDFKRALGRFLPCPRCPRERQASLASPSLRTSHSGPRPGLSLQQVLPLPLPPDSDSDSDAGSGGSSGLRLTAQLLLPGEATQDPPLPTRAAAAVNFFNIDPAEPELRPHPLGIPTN
T2 sequence (P14416 whole entry): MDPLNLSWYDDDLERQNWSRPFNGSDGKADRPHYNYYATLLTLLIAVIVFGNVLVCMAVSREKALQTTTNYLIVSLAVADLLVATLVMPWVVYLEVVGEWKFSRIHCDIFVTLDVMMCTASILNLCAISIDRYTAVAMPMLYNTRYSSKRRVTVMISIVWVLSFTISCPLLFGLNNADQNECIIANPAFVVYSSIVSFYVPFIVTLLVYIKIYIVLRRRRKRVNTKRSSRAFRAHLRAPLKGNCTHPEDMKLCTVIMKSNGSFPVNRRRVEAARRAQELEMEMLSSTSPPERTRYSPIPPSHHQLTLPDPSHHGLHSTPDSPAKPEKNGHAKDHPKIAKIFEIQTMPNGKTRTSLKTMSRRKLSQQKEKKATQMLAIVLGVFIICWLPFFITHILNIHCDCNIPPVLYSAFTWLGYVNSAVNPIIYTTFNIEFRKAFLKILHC

A word on the Ki: it is a dissociation constant, usually derived from enzyme kinetics or from competition with a known ligand. Turning to `O=S(=O)(Nc1cccc(N2CCNCC2)c1)c1cccc(OC(F)F)c1` [Example 28, 3-Difluoromethoxy-N-(3-piperazin-1-yl-phenyl)-benzenesulfonamide Hydrochloride], on h-5-HT6 receptor (setting [1]), the inhibition constant Ki was below 50 nM. Regarding `O=S(=O)(Nc1cccc(N2CCNCC2)c1)c1cccc2c1OC(F)(F)O2` [Example 29, 2,2-Difluoro-benzo[1,3]dioxole-4-sulfonic acid (3-piperazin-1-yl-phenyl)-amide Hydrochloride], on h-5-HT6 receptor (setting [1]), the Ki is below 10 nM.

`O=S(=O)(Nc1cccc(N2CCNCC2)c1)c1ccccc1OC(F)F` [Example 30, 2-Difluoromethoxy-N-(3-piperazin-1-yl-phenyl)-benzenesulfonamide Trifluoroacetate]: at h-5-HT6 receptor, the Ki is below 10 nM. As to `COc1ccc(S(=O)(=O)Nc2cccc(N3CCNCC3)c2)cc1OC(F)F` [Example 31, 3-Difluoromethoxy-4-methoxy-N-(3-piperazin-1-yl-phenyl)-benzenesulfonamide Trifluoroacetate], the Ki on h-5-HT6 receptor (setting [1]) is below 50 nM. Turning to iodospiperone [[^125I]-iodospiperone], the Kd at dopamine D2 receptor came out at 0.22 nM.

The record behind these values is patent US7790727B2, “Benzenesulfonanilide compounds suitable for treating disorders that respond to modulation of the serotonin 5-HT6 receptor” (Abbott GmbH & Co. KG, priority 2007, dated 2010).
